Experimental data published in ChEMBL document CHEMBL5715954, “Silencing c-Myc translation as a therapeutic strategy through targeting PI3Kδ and CK1ε in hematological malignancies” (Blood, 2017).

Assays:
Parameters in all cases: scale not given: the % may be the effect or the level left
[1] = molecular target: Serine/threonine-protein kinase 38-like (Homo sapiens) (UniProt Q9Y2H1); experiment: Inhibition of human STK38L assessed as enzyme activity at 1 uM using KKRNRRLSVA as substrate preincubated for 20 mins followed by [gamma-33P]-ATP addition and measured after 120 mins by radiometric Hot-SpotSM Kinase assay relative to control
Serine/threonine-protein kinase 38-like (Homo sapiens), sequence (Q9Y2H1 2-464 limits assumed): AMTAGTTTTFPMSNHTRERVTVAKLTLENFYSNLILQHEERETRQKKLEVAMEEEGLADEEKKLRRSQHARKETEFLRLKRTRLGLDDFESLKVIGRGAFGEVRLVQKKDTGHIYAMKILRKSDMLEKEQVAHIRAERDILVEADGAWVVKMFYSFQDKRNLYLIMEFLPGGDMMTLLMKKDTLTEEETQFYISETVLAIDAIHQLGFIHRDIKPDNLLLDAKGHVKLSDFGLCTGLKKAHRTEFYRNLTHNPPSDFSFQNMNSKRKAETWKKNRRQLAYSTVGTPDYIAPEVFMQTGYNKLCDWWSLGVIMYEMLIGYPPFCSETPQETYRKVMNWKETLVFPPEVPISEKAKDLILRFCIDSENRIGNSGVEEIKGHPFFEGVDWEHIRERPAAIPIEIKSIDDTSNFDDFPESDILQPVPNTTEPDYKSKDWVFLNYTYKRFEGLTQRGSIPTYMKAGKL

[2] = molecular target: MAP/microtubule affinity-regulating kinase 3 (Homo sapiens) (UniProt P27448); experiment: Inhibition of human MARK3 assessed as enzyme activity at 1 uM using KKKVSRSGLYRSPSMPENLNRPR as substrate preincubated for 20 mins followed by [gamma-33P]-ATP addition and measured after 120 mins by radiometric Hot-SpotSM Kinase assay relative to control
MAP/microtubule affinity-regulating kinase 3 (Homo sapiens), sequence (P27448 whole entry, looked up): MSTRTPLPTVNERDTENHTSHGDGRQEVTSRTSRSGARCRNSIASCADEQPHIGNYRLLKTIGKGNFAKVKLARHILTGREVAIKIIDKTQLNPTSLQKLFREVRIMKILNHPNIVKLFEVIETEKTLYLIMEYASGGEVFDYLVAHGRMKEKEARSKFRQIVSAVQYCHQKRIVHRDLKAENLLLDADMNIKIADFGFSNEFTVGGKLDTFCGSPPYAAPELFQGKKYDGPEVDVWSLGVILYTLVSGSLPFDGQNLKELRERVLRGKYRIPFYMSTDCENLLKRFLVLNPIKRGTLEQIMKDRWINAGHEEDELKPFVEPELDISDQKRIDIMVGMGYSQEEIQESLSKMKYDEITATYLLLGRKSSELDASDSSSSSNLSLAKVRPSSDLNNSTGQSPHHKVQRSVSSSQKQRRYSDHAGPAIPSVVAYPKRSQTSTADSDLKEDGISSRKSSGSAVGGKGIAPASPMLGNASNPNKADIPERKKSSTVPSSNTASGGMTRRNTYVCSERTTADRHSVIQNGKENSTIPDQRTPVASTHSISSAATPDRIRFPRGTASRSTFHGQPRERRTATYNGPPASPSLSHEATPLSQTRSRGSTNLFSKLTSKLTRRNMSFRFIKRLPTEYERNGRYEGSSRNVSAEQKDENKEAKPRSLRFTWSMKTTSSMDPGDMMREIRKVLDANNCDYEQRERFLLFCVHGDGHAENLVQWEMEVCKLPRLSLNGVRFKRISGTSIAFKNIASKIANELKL

[3] = molecular target: Serine/threonine-protein kinase 25 (Homo sapiens) (UniProt O00506); experiment: Inhibition of human STK25 assessed as enzyme activity at 1 uM using myelin basic protein as substrate preincubated for 20 mins followed by [gamma-33P]-ATP addition and measured after 120 mins by radiometric Hot-SpotSM Kinase assay relative to control
Serine/threonine-protein kinase 25 (Homo sapiens), sequence (O00506 whole entry, looked up): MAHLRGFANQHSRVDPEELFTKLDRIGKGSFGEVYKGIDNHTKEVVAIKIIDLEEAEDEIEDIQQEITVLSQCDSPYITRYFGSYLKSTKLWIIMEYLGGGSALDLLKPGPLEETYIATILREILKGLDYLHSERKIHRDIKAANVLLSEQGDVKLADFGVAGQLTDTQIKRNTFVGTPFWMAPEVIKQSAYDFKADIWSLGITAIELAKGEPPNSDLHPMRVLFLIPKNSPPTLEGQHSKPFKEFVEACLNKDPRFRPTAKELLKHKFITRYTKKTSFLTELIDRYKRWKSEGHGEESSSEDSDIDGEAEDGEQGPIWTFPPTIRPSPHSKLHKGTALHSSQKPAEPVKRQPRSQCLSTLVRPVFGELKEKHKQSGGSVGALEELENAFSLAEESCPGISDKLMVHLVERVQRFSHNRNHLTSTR

[4] = molecular target: Activin receptor type-1-like (Homo sapiens) (UniProt P37023); experiment: Inhibition of human ALK1 assessed as enzyme activity at 1 uM using casein as substrate preincubated for 20 mins followed by [gamma-33P]-ATP addition and measured after 120 mins by radiometric Hot-SpotSM Kinase assay relative to control
Activin receptor type-1-like (Homo sapiens), sequence (P37023 whole entry): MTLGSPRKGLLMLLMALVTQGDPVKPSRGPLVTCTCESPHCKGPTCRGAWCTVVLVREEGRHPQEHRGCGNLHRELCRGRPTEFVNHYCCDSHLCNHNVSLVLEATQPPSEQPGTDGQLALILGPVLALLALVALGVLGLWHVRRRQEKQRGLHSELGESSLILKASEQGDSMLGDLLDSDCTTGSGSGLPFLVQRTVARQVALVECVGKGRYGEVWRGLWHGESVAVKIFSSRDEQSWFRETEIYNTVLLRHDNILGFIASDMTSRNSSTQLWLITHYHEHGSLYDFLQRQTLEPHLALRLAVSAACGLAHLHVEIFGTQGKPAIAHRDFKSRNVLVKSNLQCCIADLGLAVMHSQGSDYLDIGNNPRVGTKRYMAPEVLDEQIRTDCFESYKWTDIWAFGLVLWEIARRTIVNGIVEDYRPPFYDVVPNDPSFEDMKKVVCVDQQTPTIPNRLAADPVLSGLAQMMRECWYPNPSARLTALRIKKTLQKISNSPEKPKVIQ

[5] = molecular target: T1, Testis-specific serine/threonine-protein kinase 2 (Homo sapiens) (UniProt Q96PF2); experiment: Inhibition of human TSSK2 assessed as enzyme activity at 1 uM using KKKVSRSGLYRSPSMPENLNRPR as substrate preincubated for 20 mins followed by [gamma-33P]-ATP addition and measured after 120 mins by radiometric Hot-SpotSM Kinase assay relative to control
T1 sequence (whole entry): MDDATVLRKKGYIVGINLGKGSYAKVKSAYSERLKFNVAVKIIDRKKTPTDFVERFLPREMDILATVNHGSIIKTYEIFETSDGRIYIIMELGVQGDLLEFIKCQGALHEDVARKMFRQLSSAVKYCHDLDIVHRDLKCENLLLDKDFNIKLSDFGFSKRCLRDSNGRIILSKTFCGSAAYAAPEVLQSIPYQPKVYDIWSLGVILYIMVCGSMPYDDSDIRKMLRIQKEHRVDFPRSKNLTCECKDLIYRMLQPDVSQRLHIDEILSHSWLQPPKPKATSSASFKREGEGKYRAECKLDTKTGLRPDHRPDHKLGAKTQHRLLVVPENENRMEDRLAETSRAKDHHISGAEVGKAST

[6] = molecular target: T2, Serine/threonine-protein kinase D2 (Homo sapiens) (UniProt Q9BZL6); experiment: Inhibition of human PKD2 assessed as enzyme activity at 1 uM using KKLNRTLSVA as substrate preincubated for 20 mins followed by [gamma-33P]-ATP addition and measured after 120 mins by radiometric Hot-SpotSM Kinase assay relative to control
T2 sequence (whole entry): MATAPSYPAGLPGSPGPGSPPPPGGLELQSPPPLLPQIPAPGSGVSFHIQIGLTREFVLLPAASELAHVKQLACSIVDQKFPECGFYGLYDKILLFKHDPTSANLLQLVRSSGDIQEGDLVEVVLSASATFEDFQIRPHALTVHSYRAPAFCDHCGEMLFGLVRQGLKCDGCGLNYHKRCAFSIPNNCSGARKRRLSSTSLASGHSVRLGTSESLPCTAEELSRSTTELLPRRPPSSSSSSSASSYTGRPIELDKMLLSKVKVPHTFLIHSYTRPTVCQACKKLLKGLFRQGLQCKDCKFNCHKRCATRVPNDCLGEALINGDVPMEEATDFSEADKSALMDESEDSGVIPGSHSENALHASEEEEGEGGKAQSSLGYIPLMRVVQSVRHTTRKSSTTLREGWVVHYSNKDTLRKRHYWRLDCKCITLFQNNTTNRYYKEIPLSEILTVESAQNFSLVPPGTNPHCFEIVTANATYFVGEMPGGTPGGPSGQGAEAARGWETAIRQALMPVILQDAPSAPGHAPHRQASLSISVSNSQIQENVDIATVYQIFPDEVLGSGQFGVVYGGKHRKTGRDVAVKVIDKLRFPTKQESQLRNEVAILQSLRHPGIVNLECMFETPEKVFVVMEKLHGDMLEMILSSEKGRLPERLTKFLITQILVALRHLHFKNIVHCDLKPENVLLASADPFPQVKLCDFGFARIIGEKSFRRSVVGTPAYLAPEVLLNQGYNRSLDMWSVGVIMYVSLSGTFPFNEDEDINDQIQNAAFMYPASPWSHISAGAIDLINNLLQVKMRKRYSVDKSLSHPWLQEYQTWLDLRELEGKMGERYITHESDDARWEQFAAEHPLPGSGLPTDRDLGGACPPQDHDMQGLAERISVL

[7] = molecular target: G protein-coupled receptor kinase 6 (Homo sapiens) (UniProt P43250); experiment: Inhibition of human GRK6 assessed as enzyme activity at 1 uM using casein as substrate preincubated for 20 mins followed by [gamma-33P]-ATP addition and measured after 120 mins by radiometric Hot-SpotSM Kinase assay relative to control
G protein-coupled receptor kinase 6 (Homo sapiens), sequence (P43250 whole entry, looked up): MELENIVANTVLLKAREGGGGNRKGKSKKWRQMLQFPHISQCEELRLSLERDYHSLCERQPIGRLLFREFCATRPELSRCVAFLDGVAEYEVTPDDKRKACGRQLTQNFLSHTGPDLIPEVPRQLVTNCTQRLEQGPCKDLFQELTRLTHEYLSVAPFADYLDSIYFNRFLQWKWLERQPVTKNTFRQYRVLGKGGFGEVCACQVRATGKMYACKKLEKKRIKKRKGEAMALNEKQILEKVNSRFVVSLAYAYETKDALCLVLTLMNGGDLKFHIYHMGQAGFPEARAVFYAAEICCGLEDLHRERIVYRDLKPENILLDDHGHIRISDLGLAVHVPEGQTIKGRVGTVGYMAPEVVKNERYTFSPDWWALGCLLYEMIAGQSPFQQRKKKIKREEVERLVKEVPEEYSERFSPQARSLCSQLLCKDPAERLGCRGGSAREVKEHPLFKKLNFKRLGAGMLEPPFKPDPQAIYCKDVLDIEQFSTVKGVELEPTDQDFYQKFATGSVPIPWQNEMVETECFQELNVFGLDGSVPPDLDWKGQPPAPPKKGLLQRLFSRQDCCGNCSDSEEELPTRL

[8] = molecular target: Leucine-rich repeat serine/threonine-protein kinase 2 (Homo sapiens) (UniProt Q5S007); experiment: Inhibition of human LRRK2 assessed as enzyme activity at 1 uM using RLGRDKYKTLRQIRQ as substrate preincubated for 20 mins followed by [gamma-33P]-ATP addition and measured after 120 mins by radiometric Hot-SpotSM Kinase assay relative to control
[9] = molecular target: T3, Dual specificity tyrosine-phosphorylation-regulated kinase 3 (Homo sapiens) (UniProt O43781); experiment: Inhibition of human DYRK3 assessed as enzyme activity at 1 uM using RRRFRPASPLRGPPK as substrate preincubated for 20 mins followed by [gamma-33P]-ATP addition and measured after 120 mins by radiometric Hot-SpotSM Kinase assay relative to control
T3 sequence (whole entry): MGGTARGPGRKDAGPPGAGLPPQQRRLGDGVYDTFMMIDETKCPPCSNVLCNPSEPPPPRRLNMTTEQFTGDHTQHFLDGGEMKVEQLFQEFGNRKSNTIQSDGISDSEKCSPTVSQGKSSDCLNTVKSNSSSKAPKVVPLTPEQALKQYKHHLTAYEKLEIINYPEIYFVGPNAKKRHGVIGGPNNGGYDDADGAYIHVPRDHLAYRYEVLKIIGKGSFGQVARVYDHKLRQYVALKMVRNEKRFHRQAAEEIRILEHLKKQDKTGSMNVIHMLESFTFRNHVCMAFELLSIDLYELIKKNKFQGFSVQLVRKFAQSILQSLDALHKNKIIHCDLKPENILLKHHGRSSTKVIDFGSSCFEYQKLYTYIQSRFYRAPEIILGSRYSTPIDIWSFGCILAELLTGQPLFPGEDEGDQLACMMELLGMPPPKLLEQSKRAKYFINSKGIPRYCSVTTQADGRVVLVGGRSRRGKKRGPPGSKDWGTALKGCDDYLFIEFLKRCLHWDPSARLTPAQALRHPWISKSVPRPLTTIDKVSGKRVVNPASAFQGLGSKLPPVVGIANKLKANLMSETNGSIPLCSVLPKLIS

CC[C@H](Nc1ncnc2[nH]cnc12)c1nc2cccc(F)c2c(=O)n1-c1ccccc1
Activity [1]: 95.1% | Activity [2]: 130% | Activity [3]: 102% | Activity [4]: 96.6% | Activity [5]: 104% | Activity [6]: 101% | Activity [7]: 99.5% | Activity [8]: 99.7% | Activity [9]: 96.9%

C[C@H](Nc1ncnc2nc[nH]c12)c1cc2cccc(Cl)c2c(=O)n1-c1ccccc1
Activity [1]: 92.7% | Activity [2]: 137% | Activity [3]: 97% | Activity [4]: 96.4% | Activity [5]: 98% | Activity [6]: 99.2% | Activity [7]: 96.9% | Activity [8]: 111% | Activity [9]: 97.8%

CC(C)Oc1ccc(-c2nn([C@@H](C)c3oc4ccc(F)cc4c(=O)c3-c3cccc(F)c3)c3ncnc(N)c23)cc1F [UMBRALISIB]
Activity [1]: 100% | Activity [2]: 100% | Activity [3]: 103% | Activity [4]: 104% | Activity [5]: 100% | Activity [6]: 101% | Activity [7]: 102% | Activity [8]: 107% | Activity [9]: 96.9%
